Reference: patent US7585977B2, “Selective estrogen receptor modulators containing a phenylsulfonyl group” (Eli Lilly and Company, priority 2005, dated 2009)
Counter-ions that a name gives are not always drawn.

Assays:
[1] = tested on: mature, ovariectomized rats; assay: 4-Day OVX Rat Uterine Agonist Assay; type: in vivo; settings: 4 days of treatment, 3 doses
Method: Cholesterol levels are also measured to compare relative ability to lower cholesterol with other SERMs. If there is any question of uterine stimulation, histological examination will determine epithelial cell height.

[2] = tested on: Ishikawa human endometrial tumor cells; assay: Ishikawa Cell Proliferation Assay, agonist mode (alkaline phosphatase readout); type: cell-based; settings: versus the response to tamoxifen, read-out: relative % efficacy
[3] = tested on: immature (3 week old) female rats; assay: 3-Day Rat Uterus Antagonist Assay; type: in vivo; settings: oral, 3 days, with E2 0.1 mg/kg
Text: 3-Day Rat Uterus Antagonist Assay: This model for uterine antagonism utilizes immature (3 week old) female rats that are highly sensitive to estrogenic stimulation of the uterus given that their circulating estrogen levels are prepubertal. The uteri from immature rats are fully responsive to exogenous estrogen, yet are quiescent in the absence of exogenous estrogen. Administration of exogenous estrogen to immature rats produces a reliable elevation of uterine weight, which can be used to study uterine antagonist effects.
Test compounds are dissolved in 20% β-hydroxycyclodextrin and administered by oral gavage in a volume of 0.2 mL daily (15 min. prior to the ethynyl estradiol gavage). A vehicle control, E2 alone and E2+raloxifene are also done as controls. The animals are fasted overnight following the final dose. […]
Uterine weight/body weight ratios (UWR) are calculated for each animal. The percent inhibition of the estrogen-induced response is then calculated by the following formula: percent inhibition=100×(UWRestrogen−UWRtest compound/UWRestrogen−UWRcontrol). […] Both the UWR data and the percent inhibition data were statistically analyzed by one way analysis of variance (ANOVA) with post-hoc testing by Fisher's PLSD when indicated by a p≦0.05. […]

[4] = tested on: Ishikawa human endometrial tumor cells; assay: Ishikawa Cell Proliferation Assay, antagonist mode (block of estradiol stimulation); type: cell-based
Method: Ishikawa Cell Proliferation Assay: This assay measures cell proliferation (using an alkaline phosphatase readout) in both an agonist mode in the presence of a compound of the present invention alone, and in an antagonist mode in which the ability of a compound of the present invention to block estradiol stimulation of growth is measured.
Ishikawa human endometrial tumor cells are maintained in MEM (minimum essential medium, with Earle's salts and L-Glutamine, Gibco BRL, Gaithersburg, Md.), supplemented with 10% fetal bovine serum (FBS) (V/V), (Gibco BRL). […]
For the agonist mode, plates receive 25 μl/well of assay medium followed by 25 μl/well of a diluted compound of the present invention (at 6× the final concentrations). […] After a 20-minute incubation, plates are read on a spectophotometer at 405 nm.
The data is fitted to a linear interpolation to derive EC50 (for agonist mode) or IC50 (for antagonist mode) values. For the antagonist mode, a % efficacy for each compound is calculated versus E2 (1 nM) alone. For the agonist mode, a % efficacy for each compound is calculated versus the response to tamoxifen.

**Q.** For `CCS(=O)(=O)c1ccc(-c2ccc3cc(O)ccc3c2Oc2ccc(OCCN3CCCCC3)cc2)cc1.Cl` [Example 14, 6-(4-Ethanesulfonyl-phenyl)-5-[4-(2-piperidin-1-yl-ethoxy)-phenoxy]-naphthalen-2-ol Hydrochloride], which “uterine eosinophil peroxidase (EPO) activity” value [1] is on record?
**A.** did not cause dose-related statistically significant increases

**Q.** For `CCS(=O)(=O)c1cc(-c2ccc3cc(O)ccc3c2Oc2ccc(OCCN3CCCCC3)cc2)cc(S(=O)(=O)CC)c1` [Example 56, 6-(3,5-Bis-ethanesulfonyl-phenyl)-5-[4-(2-piperidin-1-yl-ethoxy)-phenoxy]-naphthalen-2-ol Hydrochloride], which Emax [2] is on record?
**A.** 71.8%

**Q.** Which “% antagonism” value [3] does the source give for `CS(=O)(=O)c1ccc(-c2sc3cc(O)ccc3c2Oc2ccc(OCCN3CCCCC3)cc2)cc1.Cl` [Example 92, 2-(4-Methanesulfonyl-phenyl)-3-[4-(2-piperidin-1-yl-ethoxy)-phenoxy]-benzo[b]thiophen-6-ol Hydrochloride] here?
**A.** 62.7%

**Q.** What about the ED50 [3] of the same compound?
**A.** 0.53 mpk

**Q.** Which IC50 ([4]; 1 nM E2) does the source give for `CS(=O)(=O)c1cccc(-c2ccc3cc(O)ccc3c2Oc2ccc(OCCN3CCCCC3)cc2)c1` [Example 16, 6-(3-Methanesulfonyl-phenyl)-5-[4-(2-piperidin-1-yl-ethoxy)-phenoxy]-naphthalen-2-ol Hydrochloride] here?
**A.** 35.2 nM

**Q.** And the Emax ([4]; versus E2 (1 nM) alone, read-out: % efficacy (inhibition of the 1 nM estradiol response))?
**A.** 107%
